Measured values published in patent US5891869A, “Basic oxazoline-amide derivatives of GE2270 and GE2270-like antibiotics” (Biosearch Italia, S.p.A., priority 1995, dated 1999).

Key:
Strept. pneumoniae L44 = test: MIC by microbroth dilution; format: cell-based, Streptococcus pneumoniae; conditions: 0,01% BSA, 10^4 CFU/ml, 18-24 h, Todd Hewitt broth
Protocol: (§1) The minimal inhibitory concentration (MIC) has been determined by microbroth dilution methodology, in the presence of 0,01% (w/v) of bovine serum albumin (BSA). BSA is added to the diluent to avoid possible adherence of the compounds of the invention to the plastic surface of the microtiter wells, as disclosed also by B. Goldstein et al., Antimicrobial Agents and Chemotherapy, 37 (1993), 741-745.
(§2) Inocula were 10^4 CFU/ml, except for Propionibacterium acnes and Bacteroides fragilis (10^5 CFU/ml) MICs were read after 18-24 h, except for Haemophilus influenzae, P. acnes, B. fragilis (48 h).
(§3) All microorganisms were incubated at 37° C.; H. influenzae in a 5% CO2 atmosphere, anaerobes in a N2 --CO2 --H2 (80:10:10) mixture; other organisms in air.
(§4) The growth media are: Oxoid Iso-Sensitest broth for staphylococci and Enterococcus faecalis); Difco Todd Hewitt broth for streptococci; Difco brain heart infusion broth+1% Difco Supplement C. for H. influenzae; Difco Wilkins-Chalgren broth for anaerobes.

Staph. haemolyticus L602 = test: MIC by microbroth dilution; format: cell-based, Staphylococcus haemolyticus; conditions: 0,01% BSA, 10^4 CFU/ml, 18-24 h, Iso-Sensitest broth
Protocol: as §1, §2, §3, §4

[1] = tested on: Bacteroides fragilis ATCC 25285 L1011; test: MIC by microbroth dilution; format: cell-based; conditions: 0,01% BSA, 10^5 CFU/ml, 48 h, anaerobic, Wilkins-Chalgren broth
Protocol: as §1, §2, §3, §4

[2] = tested on: Streptococcus pyogenes L49; test: MIC by microbroth dilution; format: cell-based; conditions: 0,01% BSA, 10^4 CFU/ml, 18-24 h, Todd Hewitt broth
Protocol: as §1, §2, §3, §4

[3] = tested on: Staphylococcus aureus L165; test: MIC by microbroth dilution; format: cell-based; conditions: 0,01% BSA, inoculum 10^4 CFU/ml, read after 18-24 h, Iso-Sensitest broth
Protocol: as §1, §2, §3, §4

[4] = tested on: Enterococcus faecalis ATCC 7080 L149; test: MIC by microbroth dilution; format: cell-based; conditions: Enterococc. faecalis ATCC 7080 L149; 0,01% BSA; 10^4 CFU/ml; 18-24 h; Iso-Sensitest broth
Protocol: as §1, §2, §3, §4

[5] = tested on: Staph. epidermidis ATCC 12228 L147; test: MIC by microbroth dilution; format: cell-based, Staphylococcus epidermidis; conditions: 0,01% BSA, 10^4 CFU/ml, 18-24 h, Iso-Sensitest broth
Protocol: as §1, §2, §3, §4

[6] = tested on: Haemoph. influenzae ATCC 19418 L970; test: MIC by microbroth dilution; format: cell-based, Haemophilus influenzae; conditions: 0,01% BSA, 10^4 CFU/ml, 48 h, 5% CO2, brain heart infusion broth+1% Supplement C
Protocol: as §1, §2, §3, §4

[7] = tested on: Propionibact. acnes ATCC 6919 L1014; test: MIC by microbroth dilution; format: cell-based, Propionibacterium acnes; conditions: 0,01% BSA, 10^5 CFU/ml, 48 h, anaerobic, Wilkins-Chalgren broth
Protocol: as §1, §2, §3, §4

Strept. agalactiae L310 = test: MIC by microbroth dilution; format: cell-based, Streptococcus agalactiae; conditions: 0,01% BSA, 10^4 CFU/ml, 18-24 h, Todd Hewitt broth
Protocol: as §1, §2, §3, §4

Strept. sanguis L1721 = test: MIC by microbroth dilution; format: cell-based, Streptococcus sanguis; conditions: 0,01% BSA, 10^4 CFU/ml, 18-24 h, Todd Hewitt broth
Protocol: as §1, §2, §3, §4

gram positive bacteria = conditions: from K. Shimanaka et al.; cited from earlier work

SMILES | MIC of the compounds (Strept. pneumoniae L44) | MIC of the compounds [1] | MIC of the compounds [2] | MIC of the compounds [3] | MIC of the compounds [4] | MIC of the compounds [5] | MIC of the compounds [6] | MIC of the compounds [7] | MIC of the compounds (Strept. agalactiae L310) | MIC of the compounds (Strept. sanguis L1721) | MIC of the compounds (Staph. haemolyticus L602) | antimicrobial activity (gram positive bacteria)
CNC(=O)CC1NC(=O)c2csc(n2)-c2ccc(-c3nc(C4=NC(C(=O)NC5CNC(C(N)=O)C5)CO4)cs3)nc2-c2csc(n2)-c2csc(n2)C(C(O)c2ccccc2)NC(=O)CNC(=O)c2nc(sc2COC)C(C(C)C)NC(=O)c2nc1sc2C.O=C(O)C(F)(F)F (mixture of isomers) [Compound 13] | 0.5 µg/mL | > 128 µg/mL | 4 µg/mL | 0.13 µg/mL | 0.06 µg/mL | 0.5 µg/mL | 128 µg/mL | 0.13 µg/mL |  |  | 0.5 µg/mL | 
CNC(=O)CC1NC(=O)c2csc(n2)-c2ccc(-c3nc(C4=NC(C(=O)N(C)CCN(C)C)CO4)cs3)nc2-c2csc(n2)-c2csc(n2)C(C(O)c2ccccc2)NC(=O)CNC(=O)c2nc(sc2COC)C(C(C)C)NC(=O)c2nc1sc2C (stereo not shown) [Compound 4s] | 0.25 µg/mL | 8 µg/mL | 1 µg/mL | 0.06 µg/mL | 0.016 µg/mL | 0.06 µg/mL | 64 µg/mL | 0.03 µg/mL | 0.5 µg/mL | 0.13 µg/mL | 0.06 µg/mL | 
CNC(=O)CC1NC(=O)c2csc(n2)-c2ccc(-c3nc(C4=NC(C(=O)N5CCCC5C(N)=O)CO4)cs3)nc2-c2csc(n2)-c2csc(n2)C(C(C)C)NC(=O)CNC(=O)c2csc(n2)C(C(C)C)NC(=O)c2nc1sc2C (stereo not shown) [amythiamicin factor A] |  |  |  |  |  |  |  |  |  |  |  | shows antimicrobial activity against gram positive bacteria

Further lines, with some results ahead:

MIC of the compounds (Strept. pneumoniae L44) | MIC of the compounds [1] | MIC of the compounds [2] | MIC of the compounds [3] | MIC of the compounds [4] | MIC of the compounds [5] | MIC of the compounds [6] | MIC of the compounds [7] | MIC of the compounds (Strept. agalactiae L310) | MIC of the compounds (Strept. sanguis L1721) | SMILES | MIC of the compounds (Staph. haemolyticus L602) | antimicrobial activity (gram positive bacteria)
0.13 µg/mL | 4 µg/mL | 1 µg/mL | 0.06 µg/mL | 0.016 µg/mL | 0.13 µg/mL | 16 µg/mL | 0.016 µg/mL | 2 µg/mL | 0.13 µg/mL | CNC(=O)CC1NC(=O)c2csc(n2)-c2ccc(-c3nc(C4=NC(C(=O)N(C)CCN5CCN(CCO)CC5)CO4)cs3)nc2-c2csc(n2)-c2csc(n2)C(C(O)c2ccccc2)NC(=O)CNC(=O)c2nc(sc2COC)C(C(C)C)NC(=O)c2nc1sc2C (mixture of isomers) [Compound 19] | 0.13 µg/mL | 
0.5 µg/mL | 8 µg/mL | 1 µg/mL | 0.03 µg/mL | 0.03 µg/mL | 0.06 µg/mL | 8 µg/mL | 0.016 µg/mL | 2 µg/mL | 0.5 µg/mL | CNC(=O)CC1NC(=O)c2csc(n2)-c2ccc(-c3nc(C4=NC(C(=O)N5CCC(N(C)C)CC5)CO4)cs3)nc2-c2csc(n2)-c2csc(n2)C(C(O)c2ccccc2)NC(=O)CNC(=O)c2nc(sc2COC)C(C(C)C)NC(=O)c2nc1sc2C (stereo not shown) [Compound 10s] | 0.13 µg/mL | 
0.13 µg/mL | 8 µg/mL | 1 µg/mL | 0.06 µg/mL | 0.016 µg/mL | 0.06 µg/mL | 8 µg/mL | 0.016 µg/mL |  |  | CNC(=O)CC1NC(=O)c2csc(n2)-c2ccc(-c3nc(C4=NC(C(=O)N(C)CCN5CCN(CCO)CC5)CO4)cs3)nc2-c2csc(n2)-c2csc(n2)C(C(O)c2ccccc2)NC(=O)CNC(=O)c2nc(sc2COC)C(C(C)C)NC(=O)c2nc1sc2C (stereo not shown) [Compound 19s] | 0.13 µg/mL | 
